Source: patent publication US10717981B2, “Therapeutic compositions and methods of making and using the same” (Advanced ReGen Medical Technologies, LLC, priority 2018, dated 2020)

Experiments:
[1] = system: exosomes of heterochronic cultures; assay: Exosome production and RNA content in heterochronic culture with AGO2 inhibitor; type: cell-based, human
Procedure: Exosomes were isolated from cell culture media by the Total Exosome Isolation Kit (Life Technologies), using a modified version of the manufacturer's protocol. Briefly, 7-day isochronic and heterochronic cultures were established with Exosome-depleted FBS Media Supplement (System Biosciences), and culture media collected on the 4th and 7th days. Cells were pelleted and supernatant transferred to another tube for further clarification at 2000 g for 30 min to remove residual cells and debris. The remaining supernatant was transferred to a fresh tube and 0.5 volumes of Total Exosome Isolation reagent added for overnight incubation at 4° C. The following day samples were centrifuged at 10,000 g for 1 hr at 4° C. to pellet the exosomes for subsequent nanoparticle tracking analysis (NTA) or long-term storage at −80° C. […] For NTA, exosomes were re-suspended in 0.5 mL of PBS and measured using the following parameters: Temperature=25.6+/−0.5° C.; Viscosity=(Water) 0.99+/−0.01 cP; Measurement time=30 sec; Syringe pump speed=30. […]
Total RNA from exosomes and cells was isolated using the miRCURY RNA Isolation Kit (Exiqon) with small and large RNAs fractionated with the RNeasy MinElute Cleanup Kit (Qiagen), both according to manufacturer's recommended specifications. […] Mapped reads from individual samples were then compared to determine fold change for each miRNA. […]

[2] = system: aged MPB
Procedure: TNC vials were quickly thawed at 37° C. and cells added dropwise 1:10 to pre-warmed RPMI-1640 equilibration solution containing 5% HSA, 30 U/mL DNase I (Sigma), 5 mM MgCl2 and 5 mM CaCl2), and incubated at 37° C. for 3-4 hrs. After equilibration, cells were pelleted, washed in RPMI-1640 with 2% BSA and resuspended in complete media containing 10% FBS. Cells were seeded at densities of 10 or 30×10^6 cells/well in 12- or 6-well plates, respectively, containing 0.4 μm transwell inserts (BD Falcon). Heterochronic cultures were established with young cells in the upper chamber and aged cells in the lower chamber. Cells were incubated at 37° C. for 7 days, with 15% of culture media replenished with fresh media on the 4th day. On the 7th day, cells were harvested by centrifugation and evaluated.
Non-adherent cells from LTC-IC assays, as well as cells from isochronic and heterochronic cultures, were studied for progenitors in short-term methylcellulose culture using a CFU-GM readout. Briefly, cultures were initiated by seeding 150 cells/mm^2 in clonogenic media containing 3 U/mL of rhGM-CSF (R&D Systems). After 10 days, cultures were scored by a single blinded observer, and colonies enumerated for CFU-GM.

[3] = system: Aged TNCs; assay: Viability and cell count of aged TNCs cultured with CaMKP inhibitor (Trypan blue exclusion); type: cell-based, human
Procedure: Aged TNCs (20×10^6 cells per sample) were cultured with CaMKP inhibitor (FT-0640107 shown below) at the following concentrations 25 uM, 10 uM, 5 uM, 1 uM & 0 (vehicle). After 48 and 72 hours, cells were harvested, counted using Turk's solution and percent viability assessed using Trypan blue exclusion.
At 72 hours following treatment with the CaMPK inhibitor, FT-0640107, or vehicle, cells were harvested, counted and viability measured using Trypan blue exclusion.

[4] = system: restored cells; assay: Transwell co-culture of donor and receiver cell samples in presence or absence of manumycin; type: cell-based, human
Excerpt: Receiver cell samples (i.e., R1, R2, and R3) were individually paired with donor cell samples (i.e., D1, D2, and D3) and the pairs co-cultured in a transwell culture cell for four weeks. The morphology of the cells was studied at 2 weeks into the co-culture and at 4 weeks of co-culture. Gene expression arrays, protein arrays, and telomere length experiments compared freshly defrosted cells from the collection tubes (referred to as the baseline donor cell sample or baseline receiver cell sample) with cells at the 4-week study endpoint (referred to as restored cell samples).
Protein array analyses were carried out using conditioned media from the baseline donor cell sample or baseline receiver cell sample. The conditioned media was mixed with like cellular protein extracts and applied to the custom-designed arrays which consisted of antibody probes for 68 factors linked to cellular aging and senescence, collectively referred to as the senescence-associated secretory factors (SASF). Quantitative PCR gene array analyses were carried out by extracting RNA from the baseline samples or the co-cultured donor and receiver samples. The data presented represents the average metric determined for either the baseline donor cell sample, the baseline receiver cell sample, or the restored cell sample.
The nature of the soluble particles passing through the permeable membrane in the transwell co-culture experiments was investigated. Specifically, transwell co-culture experiments were carried out in the presence or absence of manumycin. Manumycin, -[(1S,5S,6R)-5-hydroxy-5-[(1E,3E,5E)-7-[(2-hydroxy-5-oxo-1-cyclopenten-1-yl)amino]-7-oxo-1,3,5-heptatrien-1-yl]-2-oxo-7-oxabicyclo[4.1.]hept-3-en-3-yl]-2E,4E,6R-trimethyl,2,4-decadienamide, is an antibiotic that acts a potent and selective farnesytransferase inhibitor. Mannumycin is also known to inhibit the release of exosomes. […] Further support for the role of exosome/microvesicles in mediating the disclosed cellular restoration process is shown in FIG. 36.

[5] = system: aged cells; assay: Clonogenic assay (CFU-GM) of aged cells after miRNA mimic, siRNA or exosome treatment; type: cell-based, human; details: overexpression of candidate miRNAs in aged isochronic cultures, vs negative control RNA
Excerpt: Aged TNCs (10×10^6 cells per sample) were nucleofected with microRNA mimics (Qiagen), miRNA inhibitors (Qiagen), negative control siRNA (Qiagen), negative control miRNA inhibitor (Qiagen) or downstream target candidate siRNAs (Origene) using the Amaxa P3 Primary Cell 4D-Nucleofector X Kit (Lonza) on a 4D Nucleofector device (Lonza), according to manufacturer's specific protocol. Briefly, for nucleofection of CD34+ cells used in clonogenic assays, cells were nucleofected with 60 nmol total miRNA mimics, miRNA inhibitors or siRNA using the “human CD34+ cell” program. For nucleofection of T cells used in T cell activation and cell-mediated cytotoxicity assays, cells were nucleofected with 240 nmol total miRNA mimics, miRNA inhibitors or siRNA using the “human unstimulated T cell, high functionality” program.

CC(NS(=O)(=O)c1ccc2[nH]c(=O)c(=O)[nH]c2c1)C(=O)O (centres unmarked) [BCI-137] was tested, and the “exosome production and total RNA content” value [1] was “minimal effect”, the “small and miRNA payload of exosomes” value [1] was “depleted” and the “aged MPB clonogenicity” value ([2]; inhibitor added to heterochronic cultures upon initial seeding) was “significant decrease”.
With Nc1c(S(=O)(=O)O)cc(S(=O)(=O)[O-])c2cccc(O)c12.[Na+] [FT-0640107] the cell number ([3]; 1 μM, 72 hours, vs vehicle control and high dose (25 μM), donor A04) was “increase in cell number”, the viability at 1 µM ([3]; Homo sapiens, 1 μM, 72 hours, donor A04) was 96.3% and the viability at 25 µM ([3]; Homo sapiens, high dose of 25 μM, 72 hours, donor A04) was 93%. For the same compound, the “cell viability and cell number” value ([3]; donor A03, 48 or 72 hour timepoints) was “no significant difference”.
In the case of O=C(/C=C/c1ccc(/C=C/C(=O)Nc2ccc(C3=NCCN3)cc2)cc1)Nc1ccc(C2=NCCN2)cc1 [GW4869], the “toxicity to the aged cultures” value [2] is reported as “extremely toxic” and the restorative phenotype ([2]; blocking global exosome production (data not shown)) is reported as “abrogated”.
In the case of CCCC[C@@H](C)/C=C(C)/C=C(\C)C(=O)NC1=C[C@@](O)(/C=C/C=C/C=C/C(=O)NC2=C(O)CCC2=O)[C@@H]2O[C@@H]2C1=O [manumycin, -[(1S,5S,6R)-5-hydroxy-5-[(1E,3E,5E)-7-[(2-hydroxy-5-oxo-1-cyclopenten-1-yl)amino]-7-oxo-1,3,5-heptatrien-1-yl]-2-oxo-7-oxabicyclo[4.1.]hept-3-en-3-yl]-2E,4E,6R-trimethyl,2,4-decadienamide], the “morphology of restored cells” value ([4]; 5 μM, vs absence of manumycin) is reported as “less robust morphology”, the “telomere length of restored cell sample” value ([4]; R1-D1 pair, presence vs absence of manumycin) is reported as “decreased” and the “gene expression of restored cell samples” value ([4]; co-cultured in the presence of manumycin) is reported as “did not display a change in expression levels similar to those observed in the absence of manumycin”. For the same compound, the “protein expression (senescence-related factors) of restored cell samples” value ([4]; vs co-culture in the absence of manumycin) was “elevated levels of all proteins investigated”.
With “miR-1303: miRNA (miR-1303), UUUAGAGACGGGGUCUUGCUCU (listed as RNA, chemistry not fully specified; listed as Homo sapiens)” the aged colony formation [5] was “significant effect”.
